Laboratory results published in ChEMBL document CHEMBL5625232, “Development of selective class I protein arginine methyltransferase inhibitors through fragment-based drug design approach” (Eur J Med Chem, 2023).
Calls of active or inactive are those of the source. The rule behind the calls is not given here.

Assays:
[1] = molecular target: T1, Histone-lysine N-methyltransferase SUV39H1 (Homo sapiens) (UniProt O43463); experiment: Displacement of 3H-SAM from SUV39H1 (unknown origin) using biotinylated-histone H3 peptide as substrate at 30 uM incubated for 45 mins by SPA assay relative to control
T1 sequence (whole entry): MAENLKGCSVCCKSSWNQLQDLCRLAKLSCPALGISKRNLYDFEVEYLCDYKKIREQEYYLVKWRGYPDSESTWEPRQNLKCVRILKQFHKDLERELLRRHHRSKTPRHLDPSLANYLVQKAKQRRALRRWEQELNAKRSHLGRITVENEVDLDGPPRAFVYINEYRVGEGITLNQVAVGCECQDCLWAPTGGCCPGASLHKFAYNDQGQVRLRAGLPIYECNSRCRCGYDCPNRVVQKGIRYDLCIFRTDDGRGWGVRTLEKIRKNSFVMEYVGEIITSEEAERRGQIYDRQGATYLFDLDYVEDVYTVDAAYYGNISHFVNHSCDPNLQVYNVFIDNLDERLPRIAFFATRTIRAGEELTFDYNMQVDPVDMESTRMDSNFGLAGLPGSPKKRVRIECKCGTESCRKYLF

[2] = molecular target: T2, Protein arginine N-methyltransferase 9 (Homo sapiens) (UniProt Q6P2P2); experiment: Displacement of 3H-SAM from human PRMT9 at 50 uM in presence of substrate by SPA assay
T2 sequence (whole entry): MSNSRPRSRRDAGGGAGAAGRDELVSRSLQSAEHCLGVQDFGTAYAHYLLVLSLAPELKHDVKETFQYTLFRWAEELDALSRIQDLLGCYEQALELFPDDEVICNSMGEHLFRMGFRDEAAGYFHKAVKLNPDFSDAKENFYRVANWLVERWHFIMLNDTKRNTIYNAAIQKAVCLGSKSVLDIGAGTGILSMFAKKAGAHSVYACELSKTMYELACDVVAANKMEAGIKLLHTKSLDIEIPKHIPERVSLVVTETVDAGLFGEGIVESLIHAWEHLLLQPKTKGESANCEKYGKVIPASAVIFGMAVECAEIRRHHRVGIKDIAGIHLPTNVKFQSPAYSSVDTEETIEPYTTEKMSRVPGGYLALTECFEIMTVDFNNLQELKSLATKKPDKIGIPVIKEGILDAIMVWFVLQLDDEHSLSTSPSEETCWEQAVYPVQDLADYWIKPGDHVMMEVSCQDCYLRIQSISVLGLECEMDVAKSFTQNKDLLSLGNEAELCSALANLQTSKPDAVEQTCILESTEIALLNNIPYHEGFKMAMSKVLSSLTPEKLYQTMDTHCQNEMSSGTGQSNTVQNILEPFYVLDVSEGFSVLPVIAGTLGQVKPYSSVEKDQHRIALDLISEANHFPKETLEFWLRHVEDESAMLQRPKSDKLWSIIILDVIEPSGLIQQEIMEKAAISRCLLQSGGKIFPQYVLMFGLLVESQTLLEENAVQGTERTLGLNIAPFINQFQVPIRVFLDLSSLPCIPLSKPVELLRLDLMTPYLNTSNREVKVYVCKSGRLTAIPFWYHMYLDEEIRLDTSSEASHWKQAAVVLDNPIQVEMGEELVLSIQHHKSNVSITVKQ

[3] = molecular target: T3, Histone-lysine N-methyltransferase SMYD3 (Homo sapiens) (UniProt Q9H7B4); experiment: Displacement of 3H-SAM from SMYD3 (unknown origin) using biotinylated-MAP3K2 as substrate at 30 uM incubated for 45 mins by SPA assay relative to control
T3 sequence (whole entry): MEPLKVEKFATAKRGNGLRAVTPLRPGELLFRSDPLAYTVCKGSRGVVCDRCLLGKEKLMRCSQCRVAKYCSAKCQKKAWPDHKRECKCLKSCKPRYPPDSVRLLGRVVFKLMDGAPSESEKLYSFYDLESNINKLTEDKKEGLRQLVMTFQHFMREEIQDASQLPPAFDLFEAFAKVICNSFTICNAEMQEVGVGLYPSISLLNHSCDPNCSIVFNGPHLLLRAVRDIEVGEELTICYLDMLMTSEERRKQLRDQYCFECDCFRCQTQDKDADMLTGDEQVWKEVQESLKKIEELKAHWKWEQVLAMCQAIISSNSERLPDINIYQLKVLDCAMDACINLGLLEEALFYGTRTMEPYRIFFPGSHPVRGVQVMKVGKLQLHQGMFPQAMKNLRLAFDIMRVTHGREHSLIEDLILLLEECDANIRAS

[4] = molecular target: Protein arginine N-methyltransferase 5 (Homo sapiens) (UniProt O14744); experiment: Displacement of 3H-SAM from human PRMT5 at 50 uM in presence of substrate by SPA assay
Sequence of Protein arginine N-methyltransferase 5 (Homo sapiens) (O14744 whole entry): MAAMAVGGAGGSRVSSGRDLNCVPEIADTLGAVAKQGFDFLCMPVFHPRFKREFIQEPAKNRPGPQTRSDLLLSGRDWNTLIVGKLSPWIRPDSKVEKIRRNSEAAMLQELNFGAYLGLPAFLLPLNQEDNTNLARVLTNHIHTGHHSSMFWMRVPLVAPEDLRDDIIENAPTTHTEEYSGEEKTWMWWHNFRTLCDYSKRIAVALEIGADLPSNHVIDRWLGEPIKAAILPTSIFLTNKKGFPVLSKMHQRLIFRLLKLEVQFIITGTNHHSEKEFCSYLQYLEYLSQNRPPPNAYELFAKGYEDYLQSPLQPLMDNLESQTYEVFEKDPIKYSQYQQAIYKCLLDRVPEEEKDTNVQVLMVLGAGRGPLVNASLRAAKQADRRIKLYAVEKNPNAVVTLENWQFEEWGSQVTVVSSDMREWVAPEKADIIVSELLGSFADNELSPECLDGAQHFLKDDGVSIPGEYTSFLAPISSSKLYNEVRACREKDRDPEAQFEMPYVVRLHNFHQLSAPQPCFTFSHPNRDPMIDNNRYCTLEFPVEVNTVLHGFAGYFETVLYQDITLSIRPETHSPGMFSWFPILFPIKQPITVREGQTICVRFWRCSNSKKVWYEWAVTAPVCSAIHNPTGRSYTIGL

[5] = molecular target: T4, Protein arginine N-methyltransferase 8 (Homo sapiens, UniProt Q9NR22); experiment: Displacement of 3H-SAM from human PRMT8 at 50 uM in presence of substrate by SPA assay
Target sequence in this assay (Q9NR22 2-394 limits assumed): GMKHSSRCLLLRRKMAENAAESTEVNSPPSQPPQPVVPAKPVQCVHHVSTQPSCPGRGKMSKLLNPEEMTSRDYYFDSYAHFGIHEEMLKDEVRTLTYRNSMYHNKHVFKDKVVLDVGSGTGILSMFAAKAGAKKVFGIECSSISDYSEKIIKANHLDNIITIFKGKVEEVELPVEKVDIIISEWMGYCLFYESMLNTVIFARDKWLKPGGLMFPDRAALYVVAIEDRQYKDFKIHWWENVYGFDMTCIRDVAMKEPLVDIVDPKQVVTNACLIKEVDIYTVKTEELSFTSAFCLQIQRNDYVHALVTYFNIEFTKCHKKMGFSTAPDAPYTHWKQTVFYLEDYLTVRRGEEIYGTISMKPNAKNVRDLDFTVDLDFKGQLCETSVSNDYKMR

[6] = molecular target: T5, Protein arginine N-methyltransferase 6 (Homo sapiens, UniProt Q96LA8); experiment: Displacement of 3H-SAM from human PRMT6 at 50 uM in presence of substrate by SPA assay
Target sequence in this assay (Q96LA8 whole entry, looked up): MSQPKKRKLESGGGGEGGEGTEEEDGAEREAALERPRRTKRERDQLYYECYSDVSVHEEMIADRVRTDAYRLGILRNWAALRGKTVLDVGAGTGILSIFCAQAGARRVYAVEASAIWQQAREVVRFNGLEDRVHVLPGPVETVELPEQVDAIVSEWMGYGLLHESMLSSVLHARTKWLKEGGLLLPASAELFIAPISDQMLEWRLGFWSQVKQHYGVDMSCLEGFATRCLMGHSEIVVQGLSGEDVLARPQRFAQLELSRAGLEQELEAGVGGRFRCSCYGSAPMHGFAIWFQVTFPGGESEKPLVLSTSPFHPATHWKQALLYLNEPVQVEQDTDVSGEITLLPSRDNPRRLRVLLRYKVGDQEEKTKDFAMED

[7] = molecular target: Histone-lysine N-methyltransferase, H3 lysine-79 specific (Homo sapiens) (UniProt Q8TEK3); experiment: Displacement of 3H-SAM from DOT1L (unknown origin) at 30 uM incubated for 1 hr in presence of substrate by SPA assay relative to control
Sequence of Histone-lysine N-methyltransferase, H3 lysine-79 specific (Homo sapiens) (Q8TEK3 whole entry, looked up): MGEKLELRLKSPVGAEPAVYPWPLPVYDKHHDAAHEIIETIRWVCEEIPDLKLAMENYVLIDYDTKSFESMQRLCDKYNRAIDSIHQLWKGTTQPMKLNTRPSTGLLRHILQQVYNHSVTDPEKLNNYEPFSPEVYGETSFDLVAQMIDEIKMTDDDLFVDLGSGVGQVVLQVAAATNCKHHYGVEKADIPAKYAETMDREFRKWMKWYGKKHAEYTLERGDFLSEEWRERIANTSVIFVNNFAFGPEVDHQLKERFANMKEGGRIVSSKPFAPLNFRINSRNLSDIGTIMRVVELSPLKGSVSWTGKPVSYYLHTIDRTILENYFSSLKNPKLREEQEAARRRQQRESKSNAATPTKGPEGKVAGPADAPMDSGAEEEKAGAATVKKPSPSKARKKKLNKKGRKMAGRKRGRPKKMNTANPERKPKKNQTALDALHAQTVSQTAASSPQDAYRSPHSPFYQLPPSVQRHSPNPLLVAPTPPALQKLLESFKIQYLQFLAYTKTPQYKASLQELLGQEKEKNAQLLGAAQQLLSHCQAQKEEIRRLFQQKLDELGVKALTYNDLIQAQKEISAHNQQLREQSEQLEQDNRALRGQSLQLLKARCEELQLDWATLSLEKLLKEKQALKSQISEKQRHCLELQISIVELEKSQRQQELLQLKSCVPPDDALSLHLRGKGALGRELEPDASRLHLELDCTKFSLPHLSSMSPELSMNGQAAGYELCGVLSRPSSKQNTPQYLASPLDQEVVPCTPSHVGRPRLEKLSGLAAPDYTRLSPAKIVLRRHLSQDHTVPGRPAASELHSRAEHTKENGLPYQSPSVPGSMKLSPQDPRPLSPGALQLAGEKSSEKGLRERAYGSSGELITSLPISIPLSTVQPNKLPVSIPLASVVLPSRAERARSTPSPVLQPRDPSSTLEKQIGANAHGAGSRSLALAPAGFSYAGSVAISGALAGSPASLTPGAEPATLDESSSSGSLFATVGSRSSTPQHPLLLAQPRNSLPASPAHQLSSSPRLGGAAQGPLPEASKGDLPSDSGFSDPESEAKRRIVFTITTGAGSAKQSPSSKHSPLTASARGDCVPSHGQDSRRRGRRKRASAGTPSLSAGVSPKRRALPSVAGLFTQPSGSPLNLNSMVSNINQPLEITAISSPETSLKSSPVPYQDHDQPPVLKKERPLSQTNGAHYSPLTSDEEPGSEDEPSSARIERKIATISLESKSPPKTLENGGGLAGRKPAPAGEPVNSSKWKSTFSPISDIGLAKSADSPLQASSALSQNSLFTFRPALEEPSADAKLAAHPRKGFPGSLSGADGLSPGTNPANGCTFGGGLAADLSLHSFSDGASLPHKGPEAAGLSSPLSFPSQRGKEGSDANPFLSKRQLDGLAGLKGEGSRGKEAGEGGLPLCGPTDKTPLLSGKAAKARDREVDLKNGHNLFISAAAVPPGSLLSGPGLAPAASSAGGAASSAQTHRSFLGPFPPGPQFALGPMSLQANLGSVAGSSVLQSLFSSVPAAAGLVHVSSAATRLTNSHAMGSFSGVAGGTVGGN

[8] = molecular target: T6, Protein arginine N-methyltransferase 7 (Homo sapiens) (UniProt Q9NVM4); experiment: Displacement of 3H-SAM from human PRMT7 at 50 uM in presence of substrate by SPA assay
T6 sequence (whole entry): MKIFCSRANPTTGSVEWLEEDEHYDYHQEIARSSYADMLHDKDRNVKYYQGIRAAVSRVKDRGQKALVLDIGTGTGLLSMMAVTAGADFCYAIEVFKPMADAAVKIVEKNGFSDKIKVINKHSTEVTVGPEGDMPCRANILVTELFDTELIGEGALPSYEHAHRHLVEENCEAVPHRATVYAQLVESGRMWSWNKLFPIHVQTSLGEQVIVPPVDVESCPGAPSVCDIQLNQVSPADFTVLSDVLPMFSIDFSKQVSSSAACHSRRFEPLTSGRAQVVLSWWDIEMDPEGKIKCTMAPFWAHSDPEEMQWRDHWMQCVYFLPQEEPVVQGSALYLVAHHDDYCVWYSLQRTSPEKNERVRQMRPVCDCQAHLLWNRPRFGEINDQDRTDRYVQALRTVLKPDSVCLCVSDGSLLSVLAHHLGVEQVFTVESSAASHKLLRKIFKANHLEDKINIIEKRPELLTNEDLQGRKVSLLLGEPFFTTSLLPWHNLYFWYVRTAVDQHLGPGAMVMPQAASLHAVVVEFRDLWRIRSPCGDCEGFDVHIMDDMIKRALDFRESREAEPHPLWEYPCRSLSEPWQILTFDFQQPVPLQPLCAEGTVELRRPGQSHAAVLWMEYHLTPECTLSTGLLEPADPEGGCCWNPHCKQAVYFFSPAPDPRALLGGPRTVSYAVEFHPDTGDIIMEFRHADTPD

[9] = molecular target: T7, Protein arginine N-methyltransferase 3 (Homo sapiens, UniProt O60678); experiment: Displacement of 3H-SAM from human PRMT3 at 50 uM in presence of substrate by SPA assay
Target sequence in this assay (O60678 2-531 limits assumed): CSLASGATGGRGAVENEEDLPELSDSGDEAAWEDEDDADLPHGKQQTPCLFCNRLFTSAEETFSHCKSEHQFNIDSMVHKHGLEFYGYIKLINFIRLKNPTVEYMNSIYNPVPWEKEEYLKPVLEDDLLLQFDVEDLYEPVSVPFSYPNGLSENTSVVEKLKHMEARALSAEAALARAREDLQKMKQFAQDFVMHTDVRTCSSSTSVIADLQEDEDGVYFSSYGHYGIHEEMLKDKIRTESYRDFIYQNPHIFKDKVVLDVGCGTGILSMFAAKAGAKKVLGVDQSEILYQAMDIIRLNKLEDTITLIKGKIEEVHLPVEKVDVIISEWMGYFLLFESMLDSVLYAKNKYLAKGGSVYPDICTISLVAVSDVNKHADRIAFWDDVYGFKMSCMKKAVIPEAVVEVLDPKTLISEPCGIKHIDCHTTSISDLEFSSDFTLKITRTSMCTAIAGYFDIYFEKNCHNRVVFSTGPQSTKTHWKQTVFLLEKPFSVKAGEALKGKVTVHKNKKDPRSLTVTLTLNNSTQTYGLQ

[10] = molecular target: T8, Histone-arginine methyltransferase CARM1 (Homo sapiens) (UniProt Q86X55); experiment: Displacement of 3H-SAM from human PRMT4 at 50 uM in presence of substrate by SPA assay
T8 sequence (whole entry): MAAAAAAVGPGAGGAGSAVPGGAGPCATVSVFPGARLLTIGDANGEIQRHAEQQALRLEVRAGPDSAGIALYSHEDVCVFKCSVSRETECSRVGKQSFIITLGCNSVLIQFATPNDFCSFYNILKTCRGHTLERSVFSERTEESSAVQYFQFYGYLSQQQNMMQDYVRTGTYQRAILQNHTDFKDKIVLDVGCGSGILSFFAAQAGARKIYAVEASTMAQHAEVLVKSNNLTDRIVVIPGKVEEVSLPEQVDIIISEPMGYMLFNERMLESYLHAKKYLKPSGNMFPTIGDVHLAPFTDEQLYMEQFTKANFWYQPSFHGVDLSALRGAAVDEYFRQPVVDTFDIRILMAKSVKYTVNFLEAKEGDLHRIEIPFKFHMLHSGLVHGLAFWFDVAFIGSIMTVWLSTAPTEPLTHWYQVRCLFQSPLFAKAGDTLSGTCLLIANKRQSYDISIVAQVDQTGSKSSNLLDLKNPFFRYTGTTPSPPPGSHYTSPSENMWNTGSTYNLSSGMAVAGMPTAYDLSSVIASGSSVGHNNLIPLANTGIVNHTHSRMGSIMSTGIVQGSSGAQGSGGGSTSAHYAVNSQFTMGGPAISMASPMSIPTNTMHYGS

[11] = molecular target: T7, Protein arginine N-methyltransferase 3; experiment: Inhibition of PRMT3 (unknown origin)
Target sequence in this assay (O60678 whole entry): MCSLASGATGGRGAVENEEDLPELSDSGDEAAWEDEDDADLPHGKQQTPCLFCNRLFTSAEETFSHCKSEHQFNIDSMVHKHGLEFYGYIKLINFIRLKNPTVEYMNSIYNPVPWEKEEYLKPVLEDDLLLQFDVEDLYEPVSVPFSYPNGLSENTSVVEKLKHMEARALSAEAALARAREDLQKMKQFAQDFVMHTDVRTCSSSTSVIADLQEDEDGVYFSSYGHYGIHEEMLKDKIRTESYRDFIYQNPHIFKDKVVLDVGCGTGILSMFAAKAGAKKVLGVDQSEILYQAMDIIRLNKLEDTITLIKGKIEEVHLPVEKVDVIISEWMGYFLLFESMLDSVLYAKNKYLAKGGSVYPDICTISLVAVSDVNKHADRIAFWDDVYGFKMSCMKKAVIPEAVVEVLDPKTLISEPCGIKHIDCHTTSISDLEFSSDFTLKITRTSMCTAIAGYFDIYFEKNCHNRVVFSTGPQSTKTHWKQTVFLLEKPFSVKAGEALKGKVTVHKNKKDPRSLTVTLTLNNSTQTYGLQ

[12] = molecular target: Protein arginine N-methyltransferase 1 (Homo sapiens, UniProt Q99873); experiment: Inhibition of PRMT1 (unknown origin)
Sequence of Protein arginine N-methyltransferase 1 (Q99873 whole entry): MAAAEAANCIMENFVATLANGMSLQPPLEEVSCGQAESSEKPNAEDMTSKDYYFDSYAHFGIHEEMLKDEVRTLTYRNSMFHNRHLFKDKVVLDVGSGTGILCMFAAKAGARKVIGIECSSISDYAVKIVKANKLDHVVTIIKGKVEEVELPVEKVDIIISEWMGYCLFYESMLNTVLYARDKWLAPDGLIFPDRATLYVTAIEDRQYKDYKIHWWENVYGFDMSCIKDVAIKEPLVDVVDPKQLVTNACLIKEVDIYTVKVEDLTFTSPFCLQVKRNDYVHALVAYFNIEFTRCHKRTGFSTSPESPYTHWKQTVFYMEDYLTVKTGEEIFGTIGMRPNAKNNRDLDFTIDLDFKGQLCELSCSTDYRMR

[13] = molecular target: T5, Protein arginine N-methyltransferase 6; experiment: Inhibition of PRMT6 (unknown origin)
Target sequence in this assay (Q96LA8 whole entry): as the sequence (Q96LA8 whole entry, looked up) above

[14] = molecular target: T4, Protein arginine N-methyltransferase 8; experiment: Inhibition of PRMT8 (unknown origin)
Target sequence in this assay (Q9NR22 whole entry): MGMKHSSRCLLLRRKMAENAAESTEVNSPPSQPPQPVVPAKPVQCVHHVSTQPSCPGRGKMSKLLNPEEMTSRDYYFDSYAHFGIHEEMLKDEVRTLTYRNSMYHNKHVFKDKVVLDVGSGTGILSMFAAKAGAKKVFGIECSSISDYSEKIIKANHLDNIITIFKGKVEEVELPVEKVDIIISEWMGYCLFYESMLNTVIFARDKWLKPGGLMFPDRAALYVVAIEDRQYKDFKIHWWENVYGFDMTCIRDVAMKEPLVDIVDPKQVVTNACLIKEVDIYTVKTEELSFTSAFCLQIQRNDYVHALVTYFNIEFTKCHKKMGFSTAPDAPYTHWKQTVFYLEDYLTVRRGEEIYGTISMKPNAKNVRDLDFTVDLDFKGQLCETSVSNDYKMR

[15] = molecular target: T9, Histone-arginine methyltransferase CARM1 (Homo sapiens, UniProt Q86X55); experiment: Inhibition of PRMT4 (unknown origin)
T9 sequence (Q86X55 whole entry): T8 sequence (whole entry)

| inhibition [1] [%] | inhibition [2] | inhibition [3] [%] | inhibition [4] | inhibition [5] | inhibition [6] | inhibition [7] [%] | inhibition [8] | inhibition [9] | inhibition [10] | IC50 [11] [nM] | IC50 [12] [nM] | IC50 [13] [nM] | IC50 [14] [nM] | IC50 [15] [nM] | SMILES |
| --- | --- | --- | --- | --- | --- | --- | --- | --- | --- | --- | --- | --- | --- | --- | --- |
| < 25 | Active | < 25 | Active | Active | Active | 0 | Active | Active | Active |  |  |  |  |  | CN(C)CCCNC(=O)c1ccc2c(Nc3ccc(CN)cc3)ncnc2c1 |
|  |  |  |  |  |  |  |  |  |  | 119 | 30 | 4 | 5 | 83 | CC(C)Oc1ccc(-c2c[nH]cc2CNCCN)cc1 |
